{"source": "patent US11299453B2", "about": "(Universität zu Köln, priority 2017, dated 2022)", "key": {"murine αPIG-AT25 iPSCs": {"tested_on": "murine αPIG-AT25 iPSCs", "experiment": "Cell viability (PrestoBlue) of murine iPSCs after compound treatment", "type": "cell-based", "details": "48 h; for toxicity to miPSCs (in words): 0.1-25 μM; for concentration dependence of effect on miPSC viability: 0.1, 1, 10 and 25 μM", "excerpt": "(§1) The transgenic murine induced pluripotent stem cell (miPSC) line αPIG-AT25 was generated from the miPSC line TiB7.4 as described in Fatima A et al., Stem Cell Res. 2016 Sep.; 17(2):266-272. The murine embryonic stem cell (ESC) line αPIG44-D3 was equally derived from D3 ESC line. Both transgenic mPSC lines express the IRES-linked genes encoding puromycin N-acetyl-aminotransferase (PAC) and enhanced green fluorescent protein (eGFP) which are under the control of cardiac alpha myosin heavy chain (α-MHC) promoter. They were cultured on mitomycin-inactivated mouse embryonic fibroblasts (MEF) in maintenance medium composed of Dulbecco's minimal essential medium (DMEM) with GlutaMAX (Life Technologies, Carlsbad, USA) supplemented with 15% fetal bovine serum (FBS, Sigma-Aldrich, St. Louis, USA), 1× non-essential amino acids (NEEA, Life Technologies), 50 μM β-mercaptoethanol (β-ME, Life Technologies) and 1000 U/ml of murine leukemia inhibitory factor (mLIF, ORF Genetics, Kopavogur, Iceland). Cell passaging was performed every 2-3 days by dissociating the cells with 0.05% trypsin-EDTA (Life Technologies) and seeding 1-2×10^4 cells/cm^2. The wild type mESC line R1 was cultured on cell culture plates coated with 0.1% gelatin (Sigma-Aldrich) and maintained like the transgenic mPSCs.\n(§2) Serial dilutions of DMSO stock solutions of PluriSIn #1 (Sigma-Aldrich, catalog number SML0682) or one of small molecules SM1-SM10, were prepared from 20 mM stock solutions with cell culture medium. Murine PSCs were dissociated with 0.05% trypsin-EDTA, seeded on 0.1% gelatin-coated 96-well plates with a density of 5000 cells/well and cultured in maintenance medium supplemented with 1000 U/ml of mLIF. After 1 day, cells were incubated with 40 μM PluriSIn #1 and derivatives for 72 h or with 0.01-25 μM SMs for 48 h, respectively. For treatment of corresponding PSC-derived CMs with SMs, puromycin-selected miPSC-CMs from day 14 of differentiation were dissociated with 0.25% trypsin-EDTA as described above and plated on 96-well plates (5×10^4 cells/well) which were pre-coated with 5 μg/ml fibronectin (PromoCell, Heidelberg, Germany). After culturing miPSC-CMs with 8 μg/ml puromycin for 2 more days, they were incubated in differentiation medium supplemented with 0.1-100 μM of SMs for 48-72 h. Following small molecule treatment, cell viability was determined with PrestoBlue cell viability reagent (Life Technologies). To this end, cells were washed with PBS (with calcium and magnesium, Life Technologies) and incubated with PrestoBlue reagent diluted in cell culture medium for 40 min at 37° C.\n(§3) Fluorescence intensities correlating with the number of viable cells in the wells were measured in black flat-bottom 96-well plates (Greiner Bio-One, Kremsmünster, Austria) with a GeniosPro microplate reader (Tecan, Männedorf, Schweiz).\nIC50 values were determined by regression analysis of dose-response curves upon logarithmic transformation. Microscopic images of PSCs were taken with a Zeiss Axiovert 100 inverted microscope and GFP images of CMs were captured with a Zeiss Axiovert 200M fluorescence microscope (both Carl Zeiss, Oberkochen, Germany) and analyzed with Zeiss Axiovision 4.5 software (Carl Zeiss).\nThe cytotoxicity of the compounds according to formulas SM1 to SM10 to pluripotent stem cells (PSCs) was determined in a population of murine αPIG-AT25 iPSCs, which were incubated for 48 h with compounds SM1 to SM10 in concentrations of 0.1 μM, 1 μM, 10 μM and 25 μM. Cell culture was performed as described above. Experiments were run in quadruplicate and negative and positive control cells were treated with 0.125% DMSO or 8 μg/ml puromycin, respectively. The cell viability was determined using PrestoBlue cell viability reagent. […]"}, "[1]": {"tested_on": "human neural progenitor cells derived from the human iPSC line Royan-hiPSC4", "experiment": "Cell viability (PrestoBlue) of human iPSC-derived neural progenitor cells", "type": "cell-based", "details": "1 μM, 72 h of treatment", "method": "To confirm the cytotoxicity of the compounds to PSCs, toxicity tests were also run with human neural progenitor cells (passage 20) derived from the human iPSC line Royan-hiPSC4 (RSCB0082). The cells were incubated for 24 h, 48 h and 72 h with compounds SM20, SM21, SM22 and SM23 in concentrations of 1 μM, 3 μM, 10 μM and 25 μM. Cell culture was performed as described above except that Koch medium was used. Experiments were run in quadruplicate and negative and positive control cells were treated with 0.001% DMSO or 0.1 μM, 1 μM, 10 μM and 25 μM of SM6, respectively. Cell viability was determined using PrestoBlue cell viability reagent."}, "[2]": {"tested_on": "murine αPIG-AT25 iPSC-CM monolayers"}, "[3]": {"tested_on": "murine αPIG-AT25 iPSCs, αPIG44-D3 ESCs and R1 ESCs", "experiment": "Cell viability (PrestoBlue), results pooled over murine PSC lines", "type": "cell-based", "details": "40 μM, 72 h", "excerpt": "as §1, §2, §3\nTo confirm the cytotoxicity of the compounds to PSCs, toxicity test were also run with murine ESC lines αPIG44-D3 and R1, and for comparison with αPIG-AT25 murine iPSC line. The cells were incubated for 48 h with compounds SM1, SM2, SM4, SM5, SM6 and SM8 in concentrations of 0.01 μM and 10 μM. Cell culture was performed as described above. Experiments were run in quadruplicate and negative and positive control cells were treated with 0.05% DMSO or 8 μg/ml puromycin, respectively. Cell viability was determined using PrestoBlue cell viability reagent.\nMurine αPIG-AT25 iPSCs, αPIG44-D3 ESCs and R1 ESCs were incubated with 40 μM PluriSIn #1 (Sigma-Aldrich, catalog number SML0682) for 72 h. Cell culture was performed as described above for determination of the compounds. Experiments were run in quadruplicate and negative and positive control cells were treated with 0.08% DMSO or 8 μg/ml puromycin, respectively. The cell viability was determined using PrestoBlue cell viability reagent. […]"}, "[4]": {"tested_on": "human pluripotent stem cells", "details": "exposure for 48 hours; cited from earlier work"}, "teratoma formation": {"tested_on": "teratoma formation", "details": "after transplanting 1 million cells into immunodeficient mice; cited from earlier work"}}, "data": [{"smiles": "c1ccc2[nH]c(CN[C@@H]3CCCC[C@H]3NCc3cc4ccccc4[nH]3)cc2c1", "note": "[SM21, (1R,2R)-N,N′-di[(2-indolyl)methyl]-1,2-diaminocyclohexane]", "values": [{"measurement": "toxicity to miPSCs (in words)", "setting": "murine αPIG-AT25 iPSCs", "value": "good toxicity"}]}, {"smiles": "Oc1c(CN[C@@H]2CCCC[C@H]2NCc2cccc(-c3c(F)c(F)c(F)c(F)c3F)c2O)cccc1-c1c(F)c(F)c(F)c(F)c1F", "note": "[SM20, (1R,2R)-N,N′-di[(2-hydroxy-3-penta-fluorophenyl)-benzyl]-1,2-diaminocyclohexane]", "values": [{"measurement": "toxicity to miPSCs (in words)", "setting": "murine αPIG-AT25 iPSCs", "value": "good toxicity"}, {"measurement": "NPCs killed", "setting": "[1]", "value": "eliminated all cells"}]}, {"smiles": "CC(C)(C)c1cc(CN[C@@H]2CCCC[C@H]2NCc2cc(C(C)(C)C)cc(C(C)(C)C)c2O)c(O)c(C(C)(C)C)c1", "note": "[SM10, (1R,2R)-N,N′-di[(2-hydroxy-3,5-di-tert.- butyl)benzyl]-1,2-diaminocyclohexane]", "values": [{"measurement": "concentration dependence of effect on miPSC viability", "setting": "murine αPIG-AT25 iPSCs", "value": "did not show a concentration dependent effect"}, {"measurement": "toxicity to miPSCs (in words)", "setting": "murine αPIG-AT25 iPSCs", "value": "did not"}]}, {"smiles": "N.N.[Cl][Pt][Cl]", "note": "[cisplatin]", "values": [{"measurement": "apoptotic CMs (cleaved caspase-3 staining)", "setting": "[2]", "value": "presence of apoptotic CMs"}, {"measurement": "sarcomere structure (α-actinin staining)", "setting": "[2]", "value": "degradation of the sarcomere structure"}]}, {"smiles": "Oc1c(CN[C@@H]2CCCC[C@H]2NCc2cccc(-c3cccs3)c2O)cccc1-c1cccs1", "note": "[SM23, (1R,2R)-N,N′-di([2-hydroxy-3-(2-thienyl)]-benzyl)-1,2-diaminocyclohexane]", "values": [{"measurement": "toxicity to miPSCs (in words)", "setting": "murine αPIG-AT25 iPSCs", "value": "good toxicity"}, {"measurement": "NPCs killed", "setting": "[1]", "value": "eliminated all cells"}]}, {"smiles": "O=C(NNc1ccccc1)c1ccncc1", "note": "[PluriSIn #1]", "values": [{"measurement": "reduction of cell viability, on average over the three murine PSC lines", "setting": "[3]", "value": "51.32±10.86", "unit": "%"}, {"measurement": "removal of human pluripotent stem cells from the culture", "setting": "[4]", "value": "successfully removed human pluripotent stem cells from the culture"}, {"measurement": "teratoma formation", "setting": "teratoma formation", "value": "prevented teratoma formation"}]}, {"smiles": "CN(Cc1cccc(-c2ccccc2)c1O)[C@@H]1CCCC[C@H]1N(C)Cc1cccc(-c2ccccc2)c1O", "note": "[SM3, (1R,2R)-N,N′-dimethyl-N,N′-di[(2-hydroxy-3-phenyl)-benzyl]-1,2-diaminocyclohexane]", "values": [{"measurement": "toxicity to miPSCs (in words)", "setting": "murine αPIG-AT25 iPSCs", "value": "did not"}]}, {"smiles": "CC(C)(C)c1cc(C(=O)N[C@@H]2CCCC[C@H]2NC(=O)c2cc(C(C)(C)C)cc(C(C)(C)C)c2O)c(O)c(C(C)(C)C)c1", "note": "[SM7, (1R,2R)-N,N′-di[(2-hydroxy-3,5-di-tert.- butyl)benzoyl]-1,2-diaminocyclohexane]", "values": [{"measurement": "toxicity to miPSCs (in words)", "setting": "murine αPIG-AT25 iPSCs", "value": "did not"}]}, {"smiles": "CN(Cc1cc(C(C)(C)C)cc(C(C)(C)C)c1O)[C@@H]1CCCC[C@H]1N(C)Cc1cc(C(C)(C)C)cc(C(C)(C)C)c1O", "note": "[SM9, (1R,2R)-N,N′-dimethyl-N,N′-di[(2-hydroxy-3,5-di-tert.- butyl)benzyl]-1,2-diaminocyclohexane]", "values": [{"measurement": "concentration dependence of effect on miPSC viability", "setting": "murine αPIG-AT25 iPSCs", "value": "did not show a concentration dependent effect"}, {"measurement": "toxicity to miPSCs (in words)", "setting": "murine αPIG-AT25 iPSCs", "value": "did not"}]}]}
